For series [1], the target named is T1, purified recombinant human PARP (Homo sapiens, UniProt P09874).
T1 construct: purchased Trevigan (Gaithersburg, Md.)
As to the kind of experiment: PARP enzyme assay (IC50), [3H]NAD incorporation. The class given is biochemical. The following applies: approximate IC50 values. The procedure:
A convenient method to determine IC50 of a PARP inhibitor compound is PARP assay using purified recombinant human PARP from Trevigan (Gaithersburg, Md.), as follows: The PARP enzyme assay is set up on ice in a volume of 100 microliters consisting of 100 mM Tris-HCl (pH 8.0). 1 mM MgCl2, 28 mM KCl, 28 mM NaCl, 0.1 mg/ml of DNase I activated herring sperm DNA (Sigma, Mo.), 3.0 micromolar [3H]nicotinamide adenine dinucleotide (470 mci/mmole), 7 micrograms/ml PARP enzyme, and various concentrations of the compounds to be tested. The reaction is initiated by incubating the mixture at 25° C. After 15 minutes of incubation, the reaction is terminated by adding 500 microliters of ice code 20% (w/v) trichloracetic acid. The precipitate formed is transferred onto a glass fiber filter (Packard Unifilter-GF/B) and washed three items with ethanol. After the filter is dried, the radioactivity is determined by scintillation counting.
Using the PARP assay described above, approximate IC50 values were obtained for the following compounds: […]

The test system of the next series is rabbits. The following applies: cited from earlier work.
Series [2] relates to human fibroblast cells lines (either W138 or BJ cells). As to the kind of experiment: Extending or increasing proliferative capacity and lifespan of cells. The class given is cell-based. The procedure: At the time of subdivision, the media is aspirated, and the cells rinsed with phosphate buffer saline (PBS) and then trypsinzied. The cells are counted with a Coulter counter and plated at a density of 10^5 cells per cm^2 in 6-well tissue culture plates in DMEM/199 medium supplemented with 10% bovine calf serum and varying amounts (0.10 μM, and 1 mM; from a 100× stock solution in DMEM/M199 medium) of a PARP inhibitor. This process is repeated every 7 days until the cells appear to stop dividing. The untreated (control) cells reach senescence and stop dividing after about 40 days a culture. […] The cells treated with 1 mM 3-AB will still divide after 60 days in culture.

For orientation: melting point means the temperature of the solid-liquid transition. The term IC50 denotes the concentration at which inhibition is half-maximal.

T1 sequence (P09874 whole entry): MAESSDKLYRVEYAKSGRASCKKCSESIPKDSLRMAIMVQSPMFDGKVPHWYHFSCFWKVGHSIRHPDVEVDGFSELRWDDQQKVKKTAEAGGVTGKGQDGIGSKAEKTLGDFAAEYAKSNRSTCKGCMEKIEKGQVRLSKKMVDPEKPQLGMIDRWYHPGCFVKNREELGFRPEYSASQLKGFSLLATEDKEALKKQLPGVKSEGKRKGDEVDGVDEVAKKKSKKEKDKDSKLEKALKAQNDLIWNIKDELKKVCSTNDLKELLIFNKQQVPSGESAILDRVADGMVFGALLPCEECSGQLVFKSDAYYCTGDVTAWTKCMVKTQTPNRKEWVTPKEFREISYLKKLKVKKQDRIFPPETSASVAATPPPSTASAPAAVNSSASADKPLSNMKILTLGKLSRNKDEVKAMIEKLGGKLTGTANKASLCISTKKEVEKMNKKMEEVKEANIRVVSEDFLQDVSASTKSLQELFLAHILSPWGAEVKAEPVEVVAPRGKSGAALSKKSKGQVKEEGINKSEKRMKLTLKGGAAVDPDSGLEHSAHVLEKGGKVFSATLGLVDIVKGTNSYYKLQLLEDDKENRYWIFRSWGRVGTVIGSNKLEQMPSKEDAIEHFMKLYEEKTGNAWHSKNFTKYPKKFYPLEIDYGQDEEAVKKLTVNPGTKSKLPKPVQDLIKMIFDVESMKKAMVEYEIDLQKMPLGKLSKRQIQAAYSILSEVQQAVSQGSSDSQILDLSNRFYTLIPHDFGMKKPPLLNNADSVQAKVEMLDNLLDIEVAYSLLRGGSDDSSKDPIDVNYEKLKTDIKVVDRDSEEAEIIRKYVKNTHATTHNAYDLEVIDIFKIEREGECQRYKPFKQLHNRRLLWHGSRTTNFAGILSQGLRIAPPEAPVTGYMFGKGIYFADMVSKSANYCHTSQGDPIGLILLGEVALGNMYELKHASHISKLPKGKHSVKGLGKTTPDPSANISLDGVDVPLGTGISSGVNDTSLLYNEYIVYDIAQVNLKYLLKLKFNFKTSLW

Take `COP(=O)(O)Cc1ccc2c(c1)-c1n[nH]c(=O)c3cccc(c13)O2`: the melting point lay in the range of 196 to 201 °C. Consider `CC(=O)Nc1ccc2c(c1)-c1n[nH]c(=O)c3cccc-2c13`, for which the half-maximal inhibitory concentration (IC50) in series [1] stood at 69 nM. Still for that read-out and setting: with `CC(=O)Nc1ccc2c(c1)-c1n[nH]c(=O)c3cccc(c13)O2` the figure was 36 nM; with `O=c1[nH]nc2c3c(cccc13)Oc1ccc(S(=O)(=O)O)cc1-2`, 52 nM. Same read-out and setting: with `O=c1[nH]nc2c3c(cccc13)Oc1ccc(S(=O)(=O)NCCN3CCCCC3)cc1-2` the figure was 192 nM; with `O=c1[nH]nc2c3c(cccc13)Oc1ccc(S(=O)(=O)NCCN3CCOCC3)cc1-2`, 81 nM; with `CN1CCN(S(=O)(=O)c2ccc3c(c2)-c2n[nH]c(=O)c4cccc(c24)O3)CC1`, 208 nM. Consider `CCOP(=O)(Nc1ccc2c(c1)-c1n[nH]c(=O)c3cccc(c13)O2)OCC`, for which the IC50 in series [1] was 199 nM. Same read-out and setting: with `CS(=O)(=O)Nc1ccc2c(c1)-c1n[nH]c(=O)c3cccc(c13)O2` the figure was 198 nM; with `O=C(O)c1cccc(S(=O)(=O)Nc2ccc3c(c2)-c2n[nH]c(=O)c4cccc-3c24)c1`, 52 nM; with `O=C(O)CCC(=O)Nc1ccc2c(c1)-c1n[nH]c(=O)c3cccc-2c13`, 29 nM. Same read-out and setting: with `CCN(CC)CCNS(=O)(=O)c1ccc2c(c1)-c1n[nH]c(=O)c3cccc-2c13` the figure was 390 nM; with `O=c1[nH]nc2c3c(cccc13)-c1ccc(S(=O)(=O)NCCN3CCOCC3)cc1-2`, 340 nM; with `O=c1[nH]nc2c3c(cccc13)Oc1ccc(NS(=O)(=O)O)cc1-2`, 25 nM. As to `O=C1NN=C2C3C=CC=CC3[S+]([O-])C3=CC=CC1C32` (stereo not drawn), the half-inhibitory concentration (IC50) in series [1] is 340 nM. Same read-out and setting: with `O=C(O)CCC(=O)Nc1ccc2c(c1)-c1n[nH]c(=O)c3cccc(c13)O2` the figure was 21 nM; with `NCNCc1ccc2c(c1)-c1n[nH]c(=O)c3cccc(c13)O2`, 45 nM; with `NNC(=O)c1ccc(OCc2ccc3c(c2)-c2n[nH]c(=O)c4cccc(c24)O3)cc1`, 35 nM. As for `NNC(=O)c1cc(OCc2ccc3c(c2)-c2n[nH]c(=O)c4cccc(c24)O3)cc(C(=O)NN)c1`, in series [1], the IC50 amounted to 40 nM. On the same count and under the same terms, with `N#CCc1ccc2c(c1)-c1n[nH]c(=O)c3cccc(c13)O2` the figure was 25 nM; with `CN(C)Cc1ccc2c(c1)-c1n[nH]c(=O)c3cccc(c13)O2`, 17 nM. As for `CCCCN(C)Cc1ccc2c(c1)-c1n[nH]c(=O)c3cccc(c13)O2`, the IC50 in series [1] came out at 120 nM. For `O=c1[nH]nc2c3c(cccc13)Oc1ccc(CN3CCCCC3)cc1-2`, the 50% inhibitory concentration (IC50) in series [1] turned out to be 72 nM. Still for that read-out and setting: to `NCCSCc1ccc2c(c1)-c1n[nH]c(=O)c3cccc(c13)O2` belongs 28 nM; to `Cc1cc2c(c(S(=O)(=O)O)c1)Oc1cccc3c(=O)[nH]nc-2c13`, 2030 nM. Still for that read-out and setting: with `CN(C)c1cccc(OCc2ccc3c(c2)-c2n[nH]c(=O)c4cccc(c24)O3)c1` the figure was 128 nM; with `O=C1NCC2c3cc(S(=O)(=O)O)ccc3Oc3cccc1c32` (stereo not drawn), 161 nM.

In the case of `O=c1[nH]nc2c3c(cccc13)Oc1ccc(COc3cccnc3)cc1-2`, the IC50 in series [1] worked out at 54 nM. `O=c1[nH]nc2c3c(cccc13)Oc1ccc(CN3CCN(Cc4ccccc4)CC3)cc1-2`: the concentration for half-maximal inhibition (IC50) in series [1] was 44 nM. Take `O=c1[nH]nc2c3c(cccc13)Oc1ccc(CN3CCN(c4ccccc4)CC3)cc1-2`: the IC50 in series [1] worked out at 62 nM. On the same count and under the same terms, with `O=C1NCC2c3cc(S(=O)(=O)NCCN4CCCCC4)ccc3Oc3cccc1c32` (stereo not drawn) the figure was 361 nM; with `O=c1[nH]nc2c3c(cccc13)Oc1ccc(CSc3ccncc3)cc1-2`, 17 nM. Take `O=c1[nH]nc2c3c(cccc13)Oc1c-2ccc2ccccc12`: the concentration for half-maximal inhibition (IC50) in series [1] is 40000 nM. `O=c1[nH]nc2c3c(cccc13)Oc1ccc(S(=O)(=O)NCCc3ccncc3)cc1-2`: in series [1], the half-inhibitory concentration (IC50) was 89 nM. With `Cc1cc2c(c(-n3nc4ccccc4n3)c1)Oc1cccc3c(=O)[nH]nc-2c13`, the IC50 in series [1] is 25000 nM.

Take `O=c1[nH]nc2c3c(cccc13)Oc1cc3ccccc3cc1-2`: in series [1], the half-maximal inhibitory concentration (IC50) was found to be 139 nM.

On to `O=c1[nH]nc2c3c(cccc13)Oc1ccc(-c3nc4ccccc4nc3-c3ccccc3)cc1-2`, for which the IC50 in series [1] is 100 nM. On the same count and under the same terms, to `O=c1[nH]nc2c3c(cccc13)Oc1ccc(CN3CCN(c4ccccn4)CC3)cc1-2` belongs 77 nM; to `CN1CCN(S(=O)(=O)c2ccc3c(c2)C2CNC(=O)c4cccc(c42)O3)CC1` (stereo not drawn), 233 nM; to `O=C1NCC2c3cc(S(=O)(=O)NN4CCOCC4)ccc3Oc3cccc1c32` (stereo not drawn), 144 nM. On to `O=C(O)[C@@H]1CCCN1S(=O)(=O)c1ccc2c(c1)-c1n[nH]c(=O)c3cccc(c13)O2`, for which the IC50 in series [1] worked out at 58 nM. On the same count and under the same terms, to `COC(=O)C1CCCCN1S(=O)(=O)c1ccc2c(c1)C1CNC(=O)c3cccc(c31)O2` (stereo not drawn) belongs 595 nM. As for `O=c1[nH]nc2c3c(cccc13)Oc1ccc(S(=O)(=O)NCCN(CCO)CCO)cc1-2`, the IC50 in series [1] was found to be 158 nM.

As to `CC(=O)OC(C(=O)O)C(OC(C)=O)C(=O)Nc1ccc2c(c1)-c1n[nH]c(=O)c3cccc-2c13` (stereo not drawn), in series [1], the IC50 worked out at 59 nM. Take `O=c1[nH]nc2c3c(cccc13)Oc1ccc(S(=O)(=O)NCCCN3CCOCC3)cc1-2`: the IC50 in series [1] is 185 nM.

In the case of `O=c1[nH]nc2c3c(cccc13)Oc1ccc(S(=O)(=O)NC3CN4CCC3CC4)cc1-2` (stereo not drawn), the 50% inhibitory concentration (IC50) in series [1] is 37 nM. Still for that read-out and setting: with `CN(C)CCN(C)Cc1ccc2c(c1)-c1n[nH]c(=O)c3cccc(c13)O2` the figure was 85 nM.

As for `CC(=O)OC(C(=O)O)C(OC(C)=O)C(=O)Nc1ccc2c(c1)-c1n[nH]c(=O)c3cccc(c13)O2` (stereo not drawn), in series [1], the 50% inhibitory concentration (IC50) amounted to 18 nM. Consider `O=C(O)C(O)C(O)C(=O)Nc1ccc2c(c1)-c1n[nH]c(=O)c3cccc-2c13` (stereo not drawn), for which the IC50 in series [1] turned out to be 65 nM. The same measure, in the same setting: to `O=C(O)C(O)C(O)C(=O)Nc1ccc2c(c1)-c1n[nH]c(=O)c3cccc(c13)O2` (stereo not drawn) belongs 23 nM; to `O=c1[nH]nc2c3c(cccc13)Oc1ccc(CN3CCOCC3)cc1-2`, 75 nM. As to `Oc1cccc2c(O)nccc12` [1,5-dihydroxyisoquinoline], in the series with rabbits (1 mg/kg), the “reduction in infarct size” value is 38-48%. Take `NC(=O)c1cccc(N)c1` [3-amino-benzamide]: the “reduction in infarct size in the heart” value with rabbits (single injection 10 mg/kg, one minute before occlusion or one minute before reperfusion) is reported as 32-42%. For the same compound, the “effect on lifespan and proliferative capacity of the cells” value in series [2] (10 μM) was “little or no effect”; in series [2] (100 μM), “lengthen the lifespan of the cells”; in series [2] (1 mM), “dramatically increases the lifespan and proliferative capacity of the cells”. Further, the “time in culture at which cells still divide” value in series [2] (1 mM, untreated cells stop dividing after about 40 days) was > 60 days.

The record behind these values is patent US6716828B1, “Compounds, methods and pharmaceutical compositions for treating cellular damage, such as neural or cardiovascular tissue damage” (Guilford Pharmaceuticals, Inc., priority 1999, dated 2004).
